Results from patent publication US7655396B1, “Methods for detecting receptor modulator activity” (Allergan, Inc., priority 2006, dated 2010).
Entries after “also recorded” stand apart in the source; their conditions may differ.

Target: T1, mouse alpha 2B receptor (m α2B) (Mus musculus, UniProt P30545)
T1 construct: expressed in transfected cells
T1 sequence (P30545 1-453): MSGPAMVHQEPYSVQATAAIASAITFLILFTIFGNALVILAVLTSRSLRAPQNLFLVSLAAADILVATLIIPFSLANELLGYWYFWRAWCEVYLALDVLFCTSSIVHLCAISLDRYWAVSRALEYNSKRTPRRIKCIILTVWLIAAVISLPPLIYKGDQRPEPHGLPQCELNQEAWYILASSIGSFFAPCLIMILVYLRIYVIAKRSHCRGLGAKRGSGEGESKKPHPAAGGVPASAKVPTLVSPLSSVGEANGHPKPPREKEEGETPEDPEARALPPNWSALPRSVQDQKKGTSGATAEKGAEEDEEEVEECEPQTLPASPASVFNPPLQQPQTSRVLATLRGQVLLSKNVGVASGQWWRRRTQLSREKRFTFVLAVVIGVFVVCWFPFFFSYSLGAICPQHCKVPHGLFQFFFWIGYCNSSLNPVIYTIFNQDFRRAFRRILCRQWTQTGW
Assay: FLIPR calcium flux assay in HEK 293 m α2B/Gqi5 cells (Fluo-4 dye)
Assay type: cell-based
Settings: for activity (ratio of peak height divided by background fluorescence): FIGS. 3A-3C, room temperature, 1 to 10^4 nM, 384 well, FLIPR buffer without HEPES, commercial screening company
Excerpt: This example describes the methodology used in assaying compounds for the ability to modulate the α2B receptor in a high throughput assay format in which the “readout” is the measurement of a change in intracellular calcium flux due to the use of the “promiscuous” Gqi5 hybrid G-protein, linking the α2B receptor (normally coupled to the adenylyl cyclase pathway) to the PLC pathway. Changes in intracellular calcium flux are monitored using a dye that becomes fluorescent when it binds free Ca^++ ion.
HEK 293 cells are stably co-transfected with two plasmids, the first encoding the mouse alpha 2B receptor (m α2B), and the second encoding the hybrid Gqi5 protein. […] The nucleotide sequence encoding the human Gqi5 protein is contained in the reference Aiyar et al., Human AT1 receptor is a single copy gene: characterization in a stable cell line. Mol. Cell. […] These references are hereby all incorporated by reference herein. […]
Each well of cells (in a 96 well microtiter dish) is assayed for activity in the FLIPR assay using the Fluo-4® calcium indicator dye to detect calcium flux. The structure of this dye, which can be purchased from Molecular Probes, Inc., is as follows:
The cells are loaded with this dye using the manufacturer's recommendations, and washed 3× with FLIPR Buffer. Assays are conducted at room temperature (unless otherwise indicated in the following examples). […] Only cells releasing Ca++ into the cytosol of the cells (thereby permitting Ca++ binding to the Fluo-4 dye) will have increased fluorescent emission at 520 nm.
Images of the illuminated cells are captured with a charge-coupled device (CCD) camera; CCD technology is adapted for producing high-resolution images in conditions of ultra low light. Images are collected at the rate of 60 images/minute (1 image per second) in each well. After 10 seconds, 50 μl of the test compound is pipetted into the well, and further images are collected at 1 second intervals for an additional 60 seconds, then at 15 second intervals for 4 minutes. Test compounds are prepared from 10^-2 M stocks in DMSO. Compounds are diluted in the FLIPR buffer to a final DMSO concentration of about 1%.
All images are stored on a computer hard drive for later retrieval and analysis.

[1] = FIG. 1, assay carried out at 35° C., 96 well
[2] = FIG. 2, second experiment, 35° C., norepinephrine standard

Row | Compound | activity (ratio of peak height divided by background fluorescence) | EC50 (32° C., FIG. 4B) | relative efficacy (32° C., FIG. 4B) | EC50 (35° C., FIG. 4C) | relative efficacy (35° C., FIG. 4C) | EC50 (37° C., FIG. 4D) | relative efficacy (37° C., FIG. 4D) | EC50 [1] | relative efficacy compared to a norepinephrine standard [1] | EC50 (Room Temp., FIG. 4A) | relative efficacy (Room Temp., FIG. 4A) | EC50 (FIG. 2, second experiment, 35° C., 96 well) | relative efficacy [2]
1 | COc1ccccc1N1CCN(CCN2C(=O)c3ccccc3C(C)(C)C2=O)CC1 [ARC 239, reference compound] | showed no ability to stimulate alpha 2B receptor activity |  |  |  |  |  |  |  |  |  |  |  | 
2 | c1ncc(CC2CCC3=C(CCCC3)C2)[nH]1 (centres unmarked) [Compound 1] | do not show activity to any significant degree | 302 nM | 30% | 321 nM | 40% | 67 nM | 40% | 238 nM | 40% | 305 nM | 12% |  | 
3 | OCCNC(=S)NCc1cccc(Cl)c1F [Compound 2] | shows no activity; also recorded: very modest activity only at very high concentrations; also recorded: do not show activity to any significant degree | 337 nM | 32% | 318 nM | 31% | 65 nM | 30% | 242 nM | 35% | > 1000 nM |  |  | 
4 | O=C1C2=C(CCCC2)CCC1CC1CN=CN1 (centres unmarked) [Compound 3] |  |  |  |  |  |  |  |  |  |  |  | 129 nM | 31%
5 | norepinephrine [reference compound] | showed an activity ratio above background; also recorded: shows activity above background |  |  |  |  |  |  |  |  |  |  |  | 90%
